# Tests used:
# Experiment in all cases: In vitro kinase inhibition profile (biochemical)
# Settings in all cases: read-out: Biochemical (IC50 nmol/L)
# VEGFR1 (FLT1) = VEGFR1 (FLT1) (Homo sapiens, UniProt P17948)
# VEGFR3 (FLT4) = VEGFR3 (FLT4) (Homo sapiens, UniProt P35916)
# PDGFRα = PDGFRα (Homo sapiens, UniProt P16234)
# DDR1 = DDR1 (Homo sapiens, UniProt Q08345)
# DDR2 = DDR2 (Homo sapiens, UniProt Q16832)
# RET = RET (Homo sapiens, UniProt P07949)
# EPHA2 = EPHA2 (Homo sapiens, UniProt P29317)
# EPHA3 = EPHA3 (Homo sapiens, UniProt P29320)
# EPHA4 = EPHA4 (Homo sapiens, UniProt P54764)
# EPHB2 = EPHB2 (Homo sapiens, UniProt P29323)
# EPHB4 = EPHB4 (Homo sapiens, UniProt P54760)
# FYN = FYN (Homo sapiens, UniProt P06241)
# RON = RON (Homo sapiens, UniProt Q04912)
# ROS = ROS (Homo sapiens, UniProt P08922)
# SRC = SRC (Homo sapiens, UniProt P12931)
# TIE2 = TIE2 (Homo sapiens, UniProt Q02763)
# YES = YES (Homo sapiens, UniProt P07947)
# PYK2 = PYK2 (Homo sapiens, UniProt Q14289)
# BTK = BTK (Homo sapiens, UniProt Q06187)
# EPHB3 = EPHB3 (Homo sapiens, UniProt P54753)
# INSR = INSR (Homo sapiens, UniProt P06213)
# HCK = HCK (Homo sapiens, UniProt P08631)
# FER = FER (Homo sapiens, UniProt P16591)
# LTK = LTK (Homo sapiens, UniProt P29376)
# FES = FES (Homo sapiens, UniProt P07332)
# FMS = FMS (Homo sapiens, UniProt P07333)
# ABL = ABL (Homo sapiens, UniProt P00519)
# IGF1R = IGF1R (Homo sapiens, UniProt P08069)
# ARG = ARG (Homo sapiens, UniProt P42684)
# FGFR1 = FGFR1 (Homo sapiens, UniProt P11362)
# Sequence of FMS (P07333 20-972): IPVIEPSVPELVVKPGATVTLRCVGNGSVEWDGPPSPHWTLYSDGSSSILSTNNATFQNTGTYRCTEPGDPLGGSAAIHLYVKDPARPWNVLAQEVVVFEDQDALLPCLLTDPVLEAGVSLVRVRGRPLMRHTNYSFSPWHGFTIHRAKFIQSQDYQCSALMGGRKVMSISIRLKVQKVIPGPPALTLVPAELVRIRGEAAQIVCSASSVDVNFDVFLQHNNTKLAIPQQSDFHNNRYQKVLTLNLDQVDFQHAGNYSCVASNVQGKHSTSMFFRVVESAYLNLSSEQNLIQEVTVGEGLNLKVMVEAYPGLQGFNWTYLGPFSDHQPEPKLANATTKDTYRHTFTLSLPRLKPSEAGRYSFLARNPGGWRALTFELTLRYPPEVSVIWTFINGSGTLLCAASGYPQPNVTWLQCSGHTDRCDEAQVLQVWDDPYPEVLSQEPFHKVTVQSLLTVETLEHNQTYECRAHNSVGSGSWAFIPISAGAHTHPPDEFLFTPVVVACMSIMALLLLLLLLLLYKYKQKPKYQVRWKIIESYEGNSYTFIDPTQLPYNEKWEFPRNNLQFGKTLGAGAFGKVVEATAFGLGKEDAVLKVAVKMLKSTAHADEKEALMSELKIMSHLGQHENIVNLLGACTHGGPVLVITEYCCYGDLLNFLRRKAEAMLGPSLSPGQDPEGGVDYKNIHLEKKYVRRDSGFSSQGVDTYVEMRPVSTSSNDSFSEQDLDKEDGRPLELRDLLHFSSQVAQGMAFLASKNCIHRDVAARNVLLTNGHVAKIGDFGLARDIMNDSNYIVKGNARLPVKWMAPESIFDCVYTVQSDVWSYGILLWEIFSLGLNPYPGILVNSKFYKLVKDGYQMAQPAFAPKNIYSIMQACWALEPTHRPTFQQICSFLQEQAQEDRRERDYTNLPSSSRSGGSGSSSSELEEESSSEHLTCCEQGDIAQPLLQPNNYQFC
# Sequence of YES (P07947 whole entry): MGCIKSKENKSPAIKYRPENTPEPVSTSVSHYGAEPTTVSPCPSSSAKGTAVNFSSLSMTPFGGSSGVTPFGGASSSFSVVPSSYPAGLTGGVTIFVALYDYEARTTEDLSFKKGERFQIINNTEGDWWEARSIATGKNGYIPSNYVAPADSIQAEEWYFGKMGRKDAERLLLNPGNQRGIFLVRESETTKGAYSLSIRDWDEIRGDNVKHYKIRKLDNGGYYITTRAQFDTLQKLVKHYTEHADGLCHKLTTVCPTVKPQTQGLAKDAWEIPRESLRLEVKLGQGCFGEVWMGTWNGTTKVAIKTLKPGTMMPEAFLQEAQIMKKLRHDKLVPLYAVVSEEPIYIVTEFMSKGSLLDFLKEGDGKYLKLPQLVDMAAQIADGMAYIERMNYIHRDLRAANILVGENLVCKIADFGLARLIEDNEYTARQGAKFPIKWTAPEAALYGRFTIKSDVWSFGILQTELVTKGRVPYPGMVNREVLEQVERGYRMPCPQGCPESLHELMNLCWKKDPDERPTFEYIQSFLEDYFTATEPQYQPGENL
# Sequence of EPHA3 (P29320 21-983): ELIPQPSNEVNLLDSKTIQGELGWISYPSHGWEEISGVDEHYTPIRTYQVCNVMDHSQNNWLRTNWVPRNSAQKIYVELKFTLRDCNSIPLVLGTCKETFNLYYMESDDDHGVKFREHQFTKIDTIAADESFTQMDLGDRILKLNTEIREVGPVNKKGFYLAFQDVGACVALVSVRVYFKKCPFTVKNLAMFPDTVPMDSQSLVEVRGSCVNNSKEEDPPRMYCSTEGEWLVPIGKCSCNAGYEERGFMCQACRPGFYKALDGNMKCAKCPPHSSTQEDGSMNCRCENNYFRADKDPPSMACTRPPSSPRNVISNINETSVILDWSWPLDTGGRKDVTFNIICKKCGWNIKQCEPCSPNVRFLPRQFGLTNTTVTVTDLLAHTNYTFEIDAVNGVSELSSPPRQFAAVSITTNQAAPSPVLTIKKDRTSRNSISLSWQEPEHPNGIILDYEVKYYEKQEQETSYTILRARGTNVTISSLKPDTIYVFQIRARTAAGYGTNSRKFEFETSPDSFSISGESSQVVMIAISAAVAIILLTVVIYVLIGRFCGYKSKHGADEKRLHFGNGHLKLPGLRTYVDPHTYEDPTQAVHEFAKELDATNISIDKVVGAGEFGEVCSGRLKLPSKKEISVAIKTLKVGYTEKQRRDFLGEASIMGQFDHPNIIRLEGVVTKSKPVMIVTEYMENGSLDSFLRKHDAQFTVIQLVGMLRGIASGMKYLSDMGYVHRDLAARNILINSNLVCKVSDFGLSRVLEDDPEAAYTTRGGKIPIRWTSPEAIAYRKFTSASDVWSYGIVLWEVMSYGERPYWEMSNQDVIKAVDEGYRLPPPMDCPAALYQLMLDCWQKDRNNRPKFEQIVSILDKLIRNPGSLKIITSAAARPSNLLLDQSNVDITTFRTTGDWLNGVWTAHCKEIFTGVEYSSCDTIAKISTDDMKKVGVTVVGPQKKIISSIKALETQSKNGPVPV
# Sequence of EPHB4 (P54760 16-987): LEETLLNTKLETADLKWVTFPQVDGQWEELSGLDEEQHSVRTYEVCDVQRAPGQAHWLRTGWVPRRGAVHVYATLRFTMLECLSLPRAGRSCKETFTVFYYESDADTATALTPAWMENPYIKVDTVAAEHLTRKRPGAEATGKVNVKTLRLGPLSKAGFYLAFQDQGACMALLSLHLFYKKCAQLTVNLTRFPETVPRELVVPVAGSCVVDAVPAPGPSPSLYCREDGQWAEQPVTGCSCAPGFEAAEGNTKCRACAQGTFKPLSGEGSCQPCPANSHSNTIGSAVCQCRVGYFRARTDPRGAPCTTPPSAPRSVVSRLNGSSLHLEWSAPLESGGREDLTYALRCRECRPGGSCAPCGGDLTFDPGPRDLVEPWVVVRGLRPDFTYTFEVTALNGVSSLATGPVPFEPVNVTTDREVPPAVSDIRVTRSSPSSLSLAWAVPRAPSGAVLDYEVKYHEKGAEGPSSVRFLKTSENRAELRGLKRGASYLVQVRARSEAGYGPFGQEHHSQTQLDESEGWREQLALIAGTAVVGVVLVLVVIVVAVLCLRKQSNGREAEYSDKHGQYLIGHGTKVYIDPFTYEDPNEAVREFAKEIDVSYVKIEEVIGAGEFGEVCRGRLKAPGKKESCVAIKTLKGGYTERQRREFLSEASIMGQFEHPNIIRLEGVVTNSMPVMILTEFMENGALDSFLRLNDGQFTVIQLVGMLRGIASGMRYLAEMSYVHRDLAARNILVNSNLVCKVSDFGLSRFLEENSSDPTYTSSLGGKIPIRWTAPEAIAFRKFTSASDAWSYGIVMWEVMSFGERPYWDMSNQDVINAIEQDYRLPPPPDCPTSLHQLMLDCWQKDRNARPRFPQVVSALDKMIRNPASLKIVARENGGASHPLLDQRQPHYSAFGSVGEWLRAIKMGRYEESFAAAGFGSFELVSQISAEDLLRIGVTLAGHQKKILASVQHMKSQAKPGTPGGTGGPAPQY
# Sequence of RET (P07949 29-1114): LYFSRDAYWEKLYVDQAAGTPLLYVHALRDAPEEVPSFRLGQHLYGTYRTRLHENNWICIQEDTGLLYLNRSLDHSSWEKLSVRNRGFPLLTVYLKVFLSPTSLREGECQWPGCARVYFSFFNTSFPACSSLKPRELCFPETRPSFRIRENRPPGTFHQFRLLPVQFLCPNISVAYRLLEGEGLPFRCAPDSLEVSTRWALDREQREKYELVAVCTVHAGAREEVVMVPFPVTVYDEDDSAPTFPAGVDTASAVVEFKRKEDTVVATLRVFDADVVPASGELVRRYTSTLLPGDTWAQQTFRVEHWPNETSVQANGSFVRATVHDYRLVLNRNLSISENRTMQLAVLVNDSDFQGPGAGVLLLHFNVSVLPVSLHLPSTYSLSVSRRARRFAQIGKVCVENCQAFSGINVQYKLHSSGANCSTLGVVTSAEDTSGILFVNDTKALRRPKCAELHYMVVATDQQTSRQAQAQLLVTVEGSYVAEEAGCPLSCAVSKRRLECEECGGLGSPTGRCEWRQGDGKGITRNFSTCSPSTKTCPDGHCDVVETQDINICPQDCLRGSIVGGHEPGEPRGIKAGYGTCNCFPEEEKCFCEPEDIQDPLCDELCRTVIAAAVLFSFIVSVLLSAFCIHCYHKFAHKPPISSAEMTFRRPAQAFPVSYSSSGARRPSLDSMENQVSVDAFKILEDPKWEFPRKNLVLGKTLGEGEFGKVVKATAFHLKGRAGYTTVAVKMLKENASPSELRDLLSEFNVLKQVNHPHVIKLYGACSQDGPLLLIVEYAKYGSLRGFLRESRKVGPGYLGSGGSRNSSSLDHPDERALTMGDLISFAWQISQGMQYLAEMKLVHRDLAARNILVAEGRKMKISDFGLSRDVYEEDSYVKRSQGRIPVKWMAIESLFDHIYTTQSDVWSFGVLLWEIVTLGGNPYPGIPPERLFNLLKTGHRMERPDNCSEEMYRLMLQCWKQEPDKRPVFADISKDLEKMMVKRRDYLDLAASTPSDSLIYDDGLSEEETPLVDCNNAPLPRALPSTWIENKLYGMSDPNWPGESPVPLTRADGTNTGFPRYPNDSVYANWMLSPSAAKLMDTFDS
# Sequence of HCK (P08631 whole entry): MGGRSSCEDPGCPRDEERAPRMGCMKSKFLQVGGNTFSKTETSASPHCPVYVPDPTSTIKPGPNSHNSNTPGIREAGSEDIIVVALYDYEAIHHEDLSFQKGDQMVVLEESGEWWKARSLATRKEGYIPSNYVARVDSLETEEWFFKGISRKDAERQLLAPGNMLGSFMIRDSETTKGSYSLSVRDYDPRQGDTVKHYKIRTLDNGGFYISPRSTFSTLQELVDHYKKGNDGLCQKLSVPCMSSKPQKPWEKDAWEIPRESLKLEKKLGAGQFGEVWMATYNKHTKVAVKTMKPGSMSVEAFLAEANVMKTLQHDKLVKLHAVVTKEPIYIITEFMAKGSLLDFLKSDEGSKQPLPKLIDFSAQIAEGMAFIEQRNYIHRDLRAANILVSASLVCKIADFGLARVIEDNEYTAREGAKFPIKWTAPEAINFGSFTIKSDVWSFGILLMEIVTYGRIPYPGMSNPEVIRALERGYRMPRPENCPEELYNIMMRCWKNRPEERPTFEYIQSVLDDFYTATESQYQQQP
structure (smiles),measurement,setting,value
"COCCNCc1ccc(-c2cc3nccc(Oc4ccc(NC(=O)C5(C(=O)Nc6ccc(F)cc6)CC5)cc4F)c3s2)nc1 [MGCD516, Sitravatinib]",IC50,VEGFR1 (FLT1),6 nmol/L
same,IC50,VEGFR3 (FLT4),2 nmol/L
same,IC50,PDGFRα,30 nmol/L
same,IC50,DDR1,29 nmol/L
same,IC50,DDR2,0.5 nmol/L
same,IC50,RET,44 nmol/L
same,IC50,EPHA2,44 nmol/L
same,IC50,EPHA3,1 nmol/L
same,IC50,EPHA4,76 nmol/L
same,IC50,EPHB2,10 nmol/L
same,IC50,EPHB4,12 nmol/L
same,IC50,FYN,339 nmol/L
same,IC50,RON,43 nmol/L
same,IC50,ROS,59 nmol/L
same,IC50,SRC,156 nmol/L
same,IC50,TIE2,274 nmol/L
same,IC50,YES,298 nmol/L
same,IC50,PYK2,364 nmol/L
same,IC50,BTK,304 nmol/L
same,IC50,EPHB3,249 nmol/L
same,IC50,INSR,5550 nmol/L
same,IC50,HCK,1110 nmol/L
same,IC50,FER,1590 nmol/L
same,IC50,LTK,1940 nmol/L
same,IC50,FES,2010 nmol/L
same,IC50,FMS,2290 nmol/L
same,IC50,ABL,2990 nmol/L
same,IC50,IGF1R,3980 nmol/L
same,IC50,ARG,4100 nmol/L
same,IC50,FGFR1,> 5000 nmol/L

# Source: article PMC4826192 (Oncotarget, 2015)
